Structures can show the parent of a compound that is named as a salt.
The molecules below were run against hATX/ENPP2 (Homo sapiens, UniProt Q13822) (assay: hATX/ENPP2 biochemical assay using 16:0-LPC as substrate (Amplex Red/choline oxidase/HRP fluorescence)). Conditions: hENPP2 2.5 nM, LPC (16:0) substrate.
Summary of the method: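 Enzyme preincubated with compounds 15 min at room temperature in 50 mM Tris-HCl pH 8.0, 140 mM NaCl, 5 mM CaCl2, 0.01% Triton X-100. Reaction started with 80 μM LPC (16:0) stock plus Amplex Red/choline oxidase/HRP mix; fluorescence (ex 530/em 590 nm) read kinetically. IC50 from slope between 60 and 70 min.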

SMILES	IC50 [nM]
CCc1nc2ccc(-c3cnc(CC(N)=O)nc3)cn2c1N(C)c1nc(-c2ccc(F)cc2)c(C#N)s1 [Compound 60, 2-(5-(3-((5-cyano-4-(4-fluorophenyl)thiazol-2-yl)(methyl)amino)-2-ethylimidazo[1,2-a]pyridin-6-yl)pyrimidin-2-yl)acetamide]	20 to 200
CCc1nc2ccc(-c3cnc(CC(=O)NC)nc3)cn2c1N(C)c1nc(-c2ccc(F)cc2)c(C#N)s1 [Compound 61, 2-(5-(3-((5-cyano-4-(4-fluorophenyl)thiazol-2-yl)(methyl)amino)-2-ethylimidazo[1,2-a]pyridin-6-yl)pyrimidin-2-yl)-N-methyl acetamide]	20 to 200
CCc1nc2ccc(-c3cnc(CC(=O)NC4CC4)nc3)cn2c1N(C)c1nc(-c2ccc(F)cc2)c(C#N)s1 [Compound 62, 2-(5-(3-((5-cyano-4-(4-fluorophenyl)thiazol-2-yl)(methyl)amino)-2-ethylimidazo[1,2-a]pyridin-6-yl)pyrimidin-2-yl)-N-cyclopropyl acetamide]	20 to 200
CCc1nc2ccc(-c3cnc(CC(=O)NC4CNC4)nc3)cn2c1N(C)c1nc(-c2ccc(F)cc2)c(C#N)s1 [Compound 63, N-(azetidin-3-yl)-2-(5-(3-((5-cyano-4-(4-fluorophenyl)thiazol-2-yl)(methyl)amino)-2-ethylimidazo[1,2-a]pyridin-6-yl)pyrimidin-2-yl)acetamide]	> 200
CCc1nc2ccc(-c3cnc(CC(=O)NC4(C#N)CC4)nc3)cn2c1N(C)c1nc(-c2ccc(F)cc2)c(C#N)s1 [Compound 64, 2-(5-(3-((5-cyano-4-(4-fluorophenyl)thiazol-2-yl)(methyl)amino)-2-ethylimidazo[1,2-a]pyridin-6-yl)pyrimidin-2-yl)-N-(1-cyanocyclopropyl)acetamide]	20 to 200
CCc1nc2ccc(-c3cnc(CC(=O)NC4CCNCC4)nc3)cn2c1N(C)c1nc(-c2ccc(F)cc2)c(C#N)s1 [Compound 65, 2-(5-(3-((5-cyano-4-(4-fluorophenyl)thiazol-2-yl)(methyl)amino)-2-ethylimidazo [1,2-a]pyridin-6-yl)pyrimidin-2-yl)-N-(piperidin-4-yl)acetamide]	20 to 200
CCc1nc2ccc(-c3cnc(N4CCN(C(=O)NC5CCNCC5)CC4)nc3)cn2c1N(C)c1nc(-c2ccc(F)cc2)c(C#N)s1 [Compound 67, 4-(5-(3-((5-cyano-4-(4-fluorophenyl)thiazol-2-yl)(methyl)amino)-2-ethylimidazo[1,2-a]pyridin-6-yl)pyrimidin-2-yl)-N-(piperidin-4-yl)piperazine-1-carboxamide]	20 to 200
CCc1nc2ccc(-c3ccc(N4CCN(C(=O)C5CN(C)C5)CC4)nc3)cn2c1N(C)c1nc(-c2ccc(F)cc2)c(C#N)s1 [Compound 86, 2-((2-ethyl-6-(6-(4-(1-methylazetidine-3-carbonyl)piperazin-1-yl)pyridin-3-yl)imidazo[1,2-a]pyridin-3-yl)(methyl)amino)-4-(4-fluorophenyl)thiazole-5-carbonitrile]	20 to 200
CCc1nc2ccc(-c3ccc(N4CCC(NC5CCNCC5)CC4)nc3)cn2c1N(C)c1nc(-c2ccc(F)cc2)c(C#N)s1 [Compound 90, 2-((2-ethyl-6-(6-(4-(piperidin-4-ylamino)piperidin-1-yl)pyridin-3-yl)imidazo[1,2-a]pyridin-3-yl)(methyl)amino)-4-(4-fluorophenyl)thiazole-5-carbonitrile]	≤ 20
CCc1nc2ccc(-c3ccc(N4CCN(CC(=O)N5CC[C@H](O)C5)CC4)nc3)cn2c1N(C)c1nc(-c2ccc(F)cc2)c(C#N)s1 [Compound 91, (S)-2-((2-ethyl-6-(6-(4-(2-(3-hydroxypyrrolidin-1-yl)-2-oxoethyl)piperazin-1-yl)pyridin-3-yl)imidazo[1,2-a]pyridin-3-yl)(methyl)amino)-4-(4-fluorophenyl) thiazole-5-carbonitrile]	≤ 20

Further lines, results first:

IC50 [nM]	SMILES
≤ 20	CCc1nc2ccc(-c3cnc(N4CCC(NC5CNC5)CC4)nc3)cn2c1N(C)c1nc(-c2ccc(F)cc2)c(C#N)s1 [Compound 68 formate, 2-((6-(2-(4-(azetidin-3-ylamino)piperidin-1-yl)pyrimidin-5-yl)-2-ethylimidazo[1,2-a]pyridin-3-yl)(methyl)amino)-4-(4-fluorophenyl)thiazole-5-carbonitrile formate]
≤ 20	CCc1nc2ccc(-c3cnc(N4CCC(NC5CCNCC5)CC4)nc3)cn2c1N(C)c1nc(-c2ccc(F)cc2)c(C#N)s1 [Compound 69 formate, 2-((2-ethyl-6-(2-(4-(piperidin-4-ylamino)piperidin-1-yl)pyrimidin-5-yl)imidazo[1,2-a]pyridin-3-yl)(methyl)amino)-4-(4-fluorophenyl) thiazole-5-carbonitrile formate]
≤ 20	CCc1nc2ccc(-c3cnc(N4CCC(C(=O)NC5CNC5)CC4)nc3)cn2c1N(C)c1nc(-c2ccc(F)cc2)c(C#N)s1 [Compound 72 hydrochloride, N-(azetidin-3-yl)-1-(5-(3-((5-cyano-4-(4-fluorophenyl)thiazol-2-yl)(methyl)amino)-2-ethylimidazo[1,2-a]pyridin-6-yl)pyrimidin-2-yl)piperidine-4-carboxamide hydrochloride]
≤ 20	CCc1nc2ccc(-c3cnc(N4CCC(C(=O)NC5CCNCC5)CC4)nc3)cn2c1N(C)c1nc(-c2ccc(F)cc2)c(C#N)s1 [Compound 73, 1-(5-(3-((5-cyano-4-(4-fluorophenyl)thiazol-2-yl)(methyl)amino)-2-ethylimidazo[1,2-a]pyridin-6-yl)pyrimidin-2-yl)-N-(piperidin-4-yl)piperidine-4-carboxamide]
≤ 20	CCc1nc2ccc(-c3cnc(N4CCC(NC(=O)[C@H]5C[C@H](O)CN5)CC4)nc3)cn2c1N(C)c1nc(-c2ccc(F)cc2)c(C#N)s1 [Compound 74, (2R,4S)—N-(1-(5-(3-((5-cyano-4-(4-fluorophenyl)thiazol-2-yl)(methyl)amino)-2-ethylimidazo[1,2-a]pyridin-6-yl)pyrimidin-2-yl)piperidin-4-yl)-4-hydroxypyrrolidine-2-carboxamide]
≤ 20	CCc1nc2ccc(-c3cnc(N4CCC(NC(=O)[C@@H]5C[C@H](O)CN5)CC4)nc3)cn2c1N(C)c1nc(-c2ccc(F)cc2)c(C#N)s1 [Compound 75, (2S,4S)—N-(1-(5-(3-((5-cyano-4-(4-fluorophenyl)thiazol-2-yl)(methyl)amino)-2-ethylimidazo[1,2-a]pyridin-6-yl)pyrimidin-2-yl)piperidin-4-yl)-4-hydroxypyrrolidine-2-carboxamide]
≤ 20	CCc1nc2ccc(-c3cnc(N4CCC(NC(=O)[C@H]5C[C@@H](O)CN5)CC4)nc3)cn2c1N(C)c1nc(-c2ccc(F)cc2)c(C#N)s1 [Compound 76, (2R,4R)—N-(1-(5-(3-((5-cyano-4-(4-fluorophenyl)thiazol-2-yl)(methyl)amino)-2-ethylimidazo[1,2-a]pyridin-6-yl)pyrimidin-2-vl)piperidin-4-yl)-4-hydroxypyrrolidine-2-carboxamide]
≤ 20	CCc1nc2ccc(-c3cnc(N4CCC(NC(=O)[C@@H]5C[C@@H](O)CN5)CC4)nc3)cn2c1N(C)c1nc(-c2ccc(F)cc2)c(C#N)s1 [Compound 77, (2S,4R)—N-(1-(5-(3-((5-cyano-4-(4-fluorophenyl)thiazol-2-yl)(methyl)amino)-2-ethylimidazo[1,2-a]pyridin-6-yl)pyrimidin-2-yl)piperidin-4-yl)-4-hydroxypyrrolidine-2-carboxamide]
≤ 20	CCc1nc2ccc(-c3cnc(N4CCN(C(=O)[C@@H]5C[C@@H](O)CN5C)CC4)nc3)cn2c1N(C)c1nc(-c2ccc(F)cc2)c(C#N)s1 [Compound 78, 2-((2-ethyl-6-(2-(4-((2S,4R)-4-hydroxy-1-methylpyrrolidine-2-carbonyl)piperazin-1-yl)pyrimidin-5-yl)imidazo [1,2-a]pyridin-3-yl)(methyl)amino)-4-(4-fluorophenyl)thiazole-5-carbonitrile]
≤ 20	CCc1nc2ccc(-c3cnc(N4CCN(C(=O)NC5CN(C)C5)CC4)nc3)cn2c1N(C)c1nc(-c2ccc(F)cc2)c(C#N)s1 [Compound 82 hydrochloride, 4-(5-(3-((5-cyano-4-(4-fluorophenyl)thiazol-2-yl)(methyl)amino)-2-ethylimidazo[1,2-a]pyridin-6-yl)pyrimidin-2-yl)-N-(1-methylazetidin-3-yl)piperazine-1-carboxamide hydrochloride]
≤ 20	CCc1nc2ccc(-c3cnc(N4CCC(NC(=O)C5CNC5)CC4)nc3)cn2c1N(C)c1nc(-c2ccc(F)cc2)c(C#N)s1 [Compound 83 hydrochloride, N-(1-(5-(3-((5-cyano-4-(4-fluorophenyl)thiazol-2-yl)(methyl)amino)-2-ethylimidazo[1,2-a]pyridin-6-yl)pyrimidin-2-yl)piperidin-4-yl)azetidine-3-carboxamide hydrochloride]
≤ 20	CCc1nc2ccc(-c3cnc(N4CCC(NC(=O)C5CCNCC5)CC4)nc3)cn2c1N(C)c1nc(-c2ccc(F)cc2)c(C#N)s1 [Compound 84, N-(1-(5-(3-((5-cyano-4-(4-fluorophenyl)thiazol-2-yl)(methyl)amino)-2-ethylimidazo[1,2-a]pyridin-6-yl)pyrimidin-2-yl)piperidin-4-yl)piperidine-4-carboxamide]
≤ 20	CCc1nc2ccc(-c3ccc(N4CCC(NC5(CO)CC5)CC4)nc3)cn2c1N(C)c1nc(-c2ccc(F)cc2)c(C#N)s1 [Compound 88, 2-((2-ethyl-6-(6-(4-((1-(hydroxymethyl)cyclopropyl)amino)piperidin-1-yl)pyridin-3-yl)imidazo[1,2-a]pyridin-3-yl)(methyl)amino)-4-(4-fluorophenyl)thiazole-5-carbonitrile]
≤ 20	CCc1nc2ccc(-c3ccc(N4CCC(NC5CNC5)CC4)nc3)cn2c1N(C)c1nc(-c2ccc(F)cc2)c(C#N)s1 [Compound 89 hydrochloride, 2-((6-(6-(4-(azetidin-3-ylamino)piperidin-1-yl)pyridin-3-yl)-2-ethylimidazo[1,2-a]pyridin-3-yl)(methyl)amino)-4-(4-fluorophenyl)thiazole-5-carbonitrile hydrochloride]
